We go through 2 compounds from patent publication US8163509B2, “Biological markers predictive of anti-cancer response to insulin-like growth factor-1 receptor kinase inhibitors” (The Regents of the University of Colorado, A Body Corporate, priority 2008, dated 2012).

Assay in all cases: SRB proliferation assay, 72 h
Format in all cases: cell-based, human
Background: Sulforhodamine B stains cellular protein and so reports cell mass.

One test concerns SW480 CRC cell line. The conditions noted are these: for IC50: Homo sapiens, SW480. As for the experimental part: (§1) Cell proliferation was evaluated by SRB following exposure to OSI-906 for 72 hours. Cells were plated at an optimized density in 96-well plates, incubated overnight at 37° C., and then exposed to a serial dilution of OSI-906. After 72 hours incubation, cells were fixed with trichloroacetic acid and an SRB was performed as described in materials and methods.
(§2) Cell Lines and Culture. […] human colon cancer cell lines, were obtained from American Type Culture Collection (Manassas, Va.). Cells were grown in RPMI medium supplemented with 10% fetal bovine serum, 1% non-essential amino acids, 1% penicillin/streptomycin and were maintained at 37° C. in an incubator under an atmosphere containing 5% CO2. The cells were routinely screened for the presence of mycoplasma (MycoAlert, Cambrex Bio Science, Baltimore, Md.) and were exposed to PQIP when they reached approximately 70% confluence.
(§3) Multiple clones from the same transfection were pooled and grown under puromycin selection.
(§4) The CRC cell lines were treated with a range of concentrations of PQIP (from 0.05-5 μM) for 72 hours.
(§5) To characterize the potential functionality that the selected genes may play in the sensitivity or resistance to PQIP, resistant and sensitive CRC cell lines were stably transfected with specific shRNA, treated with increasing concentrations of PQIP and proliferation assays performed to observe, if when manipulated, these genes alter responsiveness (i.e. the S or R phenotype). […] Both of these transfected cell lines were assayed for proliferation as described above.
Cell Lines and Culture: Twenty-seven human colon cancer cell lines, were obtained from American Type Culture Collection (Manassas, Va.). The GEO cells were a generous gift from Dr. Fortunato Ciardiello (Cattedra di Oncologia Medica, Dipartimento Medico-Chirurgico di Internistica Clinica e Sperimentale “F Magrassi e A Lanzara,” Seconda Università degli Studi di Napoli, Naples). All cells except GEO were grown in RPMI medium supplemented with 10% fetal bovine serum, 1% non-essential amino acids, 1% penicillin/streptomycin and were maintained at 37° C. in an incubator under an atmosphere containing 5% CO2. GEO cells were grown in DMEM/F12 supplemented with 10% fetal bovine serum, 1% non-essential amino acids, 1% penicillin/streptomycin. The cells were routinely screened for the presence of mycoplasma (MycoAlert, Cambrex Bio Science, Baltimore, Md.) and were exposed to OSI-906 when they reached approximately 70% confluence. OSI-906 was provided by OSI Pharmaceuticals, (Boulder, Colo.) and prepared as a 10 mM stock solution in DMSO.
as §3

Another test relates to RKO CRC cell line. The note with it: for IC50: Homo sapiens. As for the experimental part: (§6) FIG. 17: Results of cell proliferation assay on the panel of 27 CRC cell lines. Cell proliferation was evaluated by SRB following exposure to OSI-906 for 72 hours. Cells were plated at an optimized density in 96-well plates, incubated overnight at 37° C., and then exposed to a serial dilution of OSI-906. After 72 hours incubation, cells were fixed with trichloroacetic acid and an SRB was performed as described in materials and methods.
as §2
(§7) Cytotoxicity and Combination Effects: HT29, HCT116, RKO, and LS513 CRC cell lines were exposed to 0-10 nM SN-38 (7-Ethyl-10-hydroxy-camptothecin), 0-10 μM Oxaliplatin, or 0-50 μM 5-Fluorouracil (5-FU) for 72 hours. HT29, HCT116, RKO, and LS513 CRC cell lines were exposed to PQIP in combination with SN-38, Oxaliplatin or 5-FU. In all combinations, cells were seeded in 96-well flat bottomed plates and left overnight. PQIP and chemotherapy were both added for 72 hours. The results of the combinations were analyzed by the Chou and Talalay method with Calcusyn (Biosoft, Ferguson, Mo.).
as §4
Combination treatment of PQIP with Chemotherapy in Colon Cancer Cell Lines: IGF1R is overexpressed in CRC and has been associated with resistance to chemotherapy. Therefore, we investigated the effect of PQIP in combination with standard chemotherapy for CRC. Four CRC cell lines including, two PQIP sensitive and two PQIP resistant, were chosen for combinations. HT29 and LS513 CRC cell lines were classified as sensitive, with IC50's around 0.3 μmol/L. HCT116 and RKO CRC cell lines were classified as resistant, with IC50>5 μmol/L. Concentrations were chosen based on single agent proliferation curves for each compound. Cells were exposed to PQIP and chemotherapy (SN38, oxaliplatin, or 5-Fluorouracil) concurrently for 72 h and combinations were assessed using the SRB assay. […] It thus appears that biomarkers which predict tumor cell sensitivity will also indicate which cells will respond in a synergistic manner to an IGF-1R kinase inhibitor (e.g. PQIP) and chemotherapy (i.e. SN38, oxaliplatin, or 5-Fluorouracil). […]

The next test deals with LS513 CRC cell line. As for the experimental part:
as §6, §2, §7, §4
Combination treatment of PQIP with Chemotherapy in Colon Cancer Cell Lines: IGF1R is overexpressed in CRC and has been associated with resistance to chemotherapy. Therefore, we investigated the effect of PQIP in combination with standard chemotherapy for CRC. Four CRC cell lines including, two PQIP sensitive and two PQIP resistant, were chosen for combinations. HT29 and LS513 CRC cell lines were classified as sensitive, with IC50's around 0.3 μmol/L. HCT116 and RKO CRC cell lines were classified as resistant, with IC50>5 μmol/L. Concentrations were chosen based on single agent proliferation curves for each compound. Cells were exposed to PQIP and chemotherapy (SN38, oxaliplatin, or 5-Fluorouracil) concurrently for 72 h and combinations were assessed using the SRB assay. […] It thus appears that biomarkers which predict tumor cell sensitivity will also indicate which cells will respond in a synergistic manner to an IGF-1R kinase inhibitor (e.g. PQIP) and chemotherapy (i.e. SN38, oxaliplatin, or 5-Fluorouracil).
Cell Lines and Culture: Twenty-seven human colon cancer cell lines, were obtained from American Type Culture Collection (Manassas, Va.). The GEO cells were a generous gift from Dr. Fortunato Ciardiello (Cattedra di Oncologia Medica, Dipartimento Medico-Chirurgico di Internistica Clinica e Sperimentale “F Magrassi e A Lanzara,” Seconda Università degli Studi di Napoli, Naples). All cells except GEO were grown in RPMI medium supplemented with 10% fetal bovine serum, 1% non-essential amino acids, 1% penicillin/streptomycin and were maintained at 37° C. in an incubator under an atmosphere containing 5% CO2. GEO cells were grown in DMEM/F12 supplemented with 10% fetal bovine serum, 1% non-essential amino acids, 1% penicillin/streptomycin. […]

A further test has as its system HCT116 CRC cell line. The conditions noted are these: for IC50: Homo sapiens, HCT-116. As for the experimental part:
as §1, §2, §3, §7, §4, §5
Therefore, we investigated the effect of PQIP in combination with standard chemotherapy for CRC. […] Cells were exposed to PQIP and chemotherapy (SN38, oxaliplatin, or 5-Fluorouracil) concurrently for 72 h and combinations were assessed using the SRB assay.
Cell Lines and Culture: Twenty-seven human colon cancer cell lines, were obtained from American Type Culture Collection (Manassas, Va.). The GEO cells were a generous gift from Dr. Fortunato Ciardiello (Cattedra di Oncologia Medica, Dipartimento Medico-Chirurgico di Internistica Clinica e Sperimentale “F Magrassi e A Lanzara,” Seconda Università degli Studi di Napoli, Naples). All cells except GEO were grown in RPMI medium supplemented with 10% fetal bovine serum, 1% non-essential amino acids, 1% penicillin/streptomycin and were maintained at 37° C. in an incubator under an atmosphere containing 5% CO2.

Where [1] appears, read: 72 hours, read-out: IC50, proliferation, OSI-906 (SRB).
Setting [2] is: 72 hours, 0.05-5 μM, read-out: IC50, growth inhibition by PQIP (SRB).

Like-named read-outs stand apart in the source and are kept apart here.

Regarding `C[C@]1(O)C[C@@H](c2nc(-c3ccc4ccc(-c5ccccc5)nc4c3)c3c(N)nccn32)C1` [OSI-906, cis-3-[8-amino-1-(2-phenyl-quinolin-7-yl)-imidazo[1,5-a]pyrazin-3-yl]-1-methyl-cyclobutanol], the IC50 in the test on SW480 CRC cell line (read-out: S/I/R to OSI-906) is > 5 µM; in the test on SW480 CRC cell line (setting [1]) it was > 5 µM; in the test with RKO CRC cell line (setting [1]) it was > 5 µM; in the test on RKO CRC cell line (read-out: S/I/R to OSI-906), > 5 µM; with LS513 CRC cell line (Homo sapiens, LS-513, 72 h, LS513, 72 hours, read-out: IC50, proliferation, OSI-906 (SRB)), ≤ 1.5 µM; with LS513 CRC cell line (Homo sapiens, LS-513, LS513, read-out: S/I/R to OSI-906), ≤ 1.5 µM. Also, the IC50 with HCT116 CRC cell line (HCT116, 72 hours, read-out: IC50, proliferation, OSI-906 (SRB)) is > 5 µM; in the test with HCT116 CRC cell line (HCT116, read-out: S/I/R to OSI-906), > 5 µM; with HCT116 CRC cell line (HCT116 stably transfected with MT2A shRNA, read-out: IC50, proliferation, OSI-906 (SRB) after MT2A shRNA knockdown), 5 µM. Besides, the “shift in sensitivity to OSI-906 after MT2A shRNA knockdown” value in the test with SW480 CRC cell line (SW480 stably transfected with MT2A shRNA) is on record as “did not exhibit the same “left shift””.
`CN1CCN([C@H]2C[C@@H](c3nc(-c4ccc5ccc(-c6ccccc6)nc5c4)c4c(N)nccn43)C2)CC1` [PQIP, cis-3-[3-(4-Methyl-piperazin-1-yl)-cyclobutyl]1-(2-phenyl-quinolin-7-yl)-imidazo[1,5-a]pyrazin-8-ylamine]: the IC50 is > 5 µM in the test on SW480 CRC cell line (setting [2]); > 5 µM in the test with RKO CRC cell line (setting [2]); < 0.5 µM in the test on LS513 CRC cell line (Homo sapiens, LS-513, 72 h, LS513, 72 hours, 0.05-5 μM, read-out: IC50, growth inhibition by PQIP (SRB)); ~0.3 µM in the test on LS513 CRC cell line (LS513, 72 hours, 0.05-5 μM, read-out: IC50, growth inhibition by PQIP (SRB)); > 5 µM with HCT116 CRC cell line (HCT116, 72 hours, 0.05-5 μM, read-out: IC50, growth inhibition by PQIP (SRB)). The “shift in sensitivity to PQIP after shRNA knockdown” value was “very modest if any left shift in sensitivity” in the test on SW480 CRC cell line (SW480 transfected with MT2A shRNA vs parental or scramble shRNA control), “no left shift in sensitivity” in the test on SW480 CRC cell line (SW480 transfected with caldesmon shRNA vs parental or scramble shRNA control), “left shift in sensitivity” in the test with HCT116 CRC cell line (HCT116 transfected with MT2A shRNA vs parental or scramble shRNA control) and “no left shift in sensitivity” in the test on HCT116 CRC cell line (HCT116 transfected with caldesmon shRNA vs parental or scramble shRNA control). The “combination index (CI) values, PQIP and chemotherapy” value in the test with RKO CRC cell line (PQIP with SN38, oxaliplatin or 5-Fluorouracil concurrently 72 h, nearly all combinations, Chou and Talalay) is 0.6-1.4; in the test with LS513 CRC cell line (LS513, PQIP with SN38, oxaliplatin or 5-Fluorouracil concurrently 72 h, nearly all CI values, Chou and Talalay), 0.2-1.0; with HCT116 CRC cell line (HCT116, PQIP with SN38, oxaliplatin or 5-Fluorouracil concurrently 72 h, nearly all combinations, Chou and Talalay), 0.6-1.4.
